Converted amounts (≈) assume the structure as drawn.
How the values were obtained:
Assay type in all cases: functional
Enterococcus faecalis [1] = assay: Minimum inhibitory concentration against Enterococcus faecalis (VanA, BM4166)
Enterococcus faecalis [2] = assay: Minimum inhibitory concentration against Enterococcus faecalis (VanB, ATCC 51299)
Staphylococcus aureus = assay: Minimum inhibitory concentration against Staphylococcus aureus (ATCC 25923)

## CN[C@H](CC(C)C)C(=O)NC1C(=O)NC(CC(N)=O)C(=O)NC2C(=O)NC3C(=O)NC(C(=O)NC(C(=O)OC)c4cc(OC)cc(OC)c4-c4cc3ccc4OC)C(O)c3ccc(c(Cl)c3)Oc3cc2cc(c3OC)Oc2ccc(cc2Cl)[C@H]1O (stereo partly specified)
Enterococcus faecalis [1]
  MIC: 50 µg/mL (≈ 41.2 µM)
Enterococcus faecalis [2]
  MIC: 1.6 µg/mL (≈ 1.32 µM)
Staphylococcus aureus
  MIC: 1.6 µg/mL (≈ 1.32 µM)

## COC(=O)[C@H]1NC(=O)[C@H]2NC(=O)[C@H](NC(=O)[C@@H]3NC(=O)[C@H]4NC(=O)[C@H](NC(=O)[C@H](N)c5ccc(O)c(c5)Oc5cc4cc(O)c5C)[C@H](O)c4ccc(cc4)Oc4cc3cc(c4O)Oc3ccc(cc3)[C@H]2O)c2ccc(O)c(c2)-c2c(O)cc(O)cc21
Enterococcus faecalis [1]
  MIC: > 100 µg/mL
Enterococcus faecalis [2]
  MIC: 25 µg/mL (≈ 21.3 µM)
Staphylococcus aureus
  MIC: 0.8 µg/mL (≈ 0.681 µM)

## CN[C@H](CC(C)C)C(=O)NC1C(=O)NC(CC#N)C(=O)NC2C(=O)NC3C(=O)NC(C(=O)NC(C(=O)OC)c4cc(OC)cc(OC)c4-c4cc3ccc4OC)C(O)c3ccc(c(Cl)c3)Oc3cc2cc(c3OC)Oc2ccc(cc2Cl)[C@H]1O (stereo partly specified)
Enterococcus faecalis [1]
  MIC: 50 µg/mL (≈ 41.8 µM)
Enterococcus faecalis [2]
  MIC: 1.6 µg/mL (≈ 1.34 µM)
Staphylococcus aureus
  MIC: 1.6 µg/mL (≈ 1.34 µM)

## COC(=O)C1NC(=O)C2NC(=O)C(NC(=O)C3NC(=O)C4NC(=O)[C@H](NC(=O)[C@H](N)c5ccc(O)c(c5)Oc5cc4cc(O)c5C)[C@H](O)c4ccc(cc4)Oc4cc3cc(c4OC)Oc3ccc(cc3)C2O)c2ccc(O)c(c2)-c2c(OC)cc(O)cc21 (stereo partly specified)
Enterococcus faecalis [1]
  MIC: > 100 µg/mL
Enterococcus faecalis [2]
  MIC: 3.2 µg/mL (≈ 2.66 µM)
Staphylococcus aureus
  MIC: 3.2 µg/mL (≈ 2.66 µM)

## Cc1c(O)cc2cc1Oc1cc(ccc1O)[C@@H](N)C(=O)N[C@H]1C(=O)N[C@@H]2C(=O)N[C@H]2C(=O)N[C@H]3C(=O)N[C@H](C(=O)N[C@@H](C(=O)O)c4cc(O)cc(O[C@H]5O[C@H](CO)[C@@H](O)[C@H](O)[C@@H]5O)c4-c4cc3ccc4O)[C@H](O[C@H]3C[C@@H](N)[C@@H](O)[C@H](C)O3)c3ccc(cc3)Oc3cc2cc(c3O[C@H]2O[C@@H](CO[C@H]3O[C@H](C)[C@@H](O)[C@H](O)[C@@H]3O)[C@H](O)[C@@H](O)[C@@H]2O[C@H]2O[C@H](CO)[C@@H](O)[C@H](O)[C@@H]2O[C@H]2O[C@H](CO)[C@@H](O)[C@@H]2O)Oc2ccc(cc2)[C@H]1O [RISTOCETIN]
Enterococcus faecalis [1]
  MIC: > 100 µg/mL
Enterococcus faecalis [2]
  MIC: 12.5 µg/mL (≈ 6.09 µM)
Staphylococcus aureus
  MIC: 1.6 µg/mL (≈ 0.779 µM)

## CN[C@H](CC(C)C)C(=O)N[C@H]1C(=O)N[C@@H](CC(N)=O)C(=O)N[C@H]2C(=O)N[C@H]3C(=O)N[C@H](C(=O)N[C@H](C(=O)O)c4cc(O)cc(O)c4-c4cc3ccc4O)[C@H](O)c3ccc(c(Cl)c3)Oc3cc2cc(c3O)Oc2ccc(cc2Cl)[C@H]1O [VANCOMYCIN AGLYCON]
Enterococcus faecalis [1]
  MIC: > 100 µg/mL
Enterococcus faecalis [2]
  MIC: 25 µg/mL (≈ 21.9 µM)
Staphylococcus aureus
  MIC: 0.8 µg/mL (≈ 0.699 µM)

## CN[C@H](CC(C)C)C(=O)N[C@H]1C(=O)N[C@@H](CC(N)=O)C(=O)N[C@H]2C(=O)N[C@H]3C(=O)N[C@H](C(=O)N[C@H](C(=O)O)c4cc(O)cc(O)c4-c4cc3ccc4O)[C@H](O)c3ccc(c(Cl)c3)Oc3cc2cc(c3O[C@@H]2O[C@H](CO)[C@@H](O)[C@H](O)[C@H]2O[C@H]2C[C@](C)(N)[C@H](O)[C@H](C)O2)Oc2ccc(cc2Cl)[C@H]1O [VANCOMYCIN]
Enterococcus faecalis [1]
  MIC: > 100 µg/mL
Enterococcus faecalis [2]
  MIC: 25 µg/mL (≈ 17.3 µM)
Staphylococcus aureus
  MIC: 0.8 µg/mL (≈ 0.552 µM)

Source: ChEMBL document CHEMBL1136190, “Synthesis and evaluation of methyl ether derivatives of the vancomycin, teicoplanin, and ristocetin aglycon methyl esters” (2003)
